Data as given in ChEMBL document CHEMBL3885861, “Open TG-GATES”.

Species on record: Rattus norvegicus
Assay: Open TG-GATES - Regimen: Single
Type: toxicity, organism-based, Sprague-Dawley
Set-up: regimen Single, gender Male, age 6 weeks
Conditions: in vivo, po, route gavage; for APTT / Bas / Eos / Fbg / Hb / Ht / Lym / MCH / MCHC / MCV / Mono / Neu / PT / Plat / RBC / Ret / WBC: tissue Blood; for KIDNEY_L / KIDNEY_R / KIDNEY_TOTAL: tissue Kidney; for LIVER: tissue Liver; for A/G / ALP / ALT / AST / BUN / CRE / Ca / Cl / DBIL / GLC / IP / K / LDH / Na / PL / RALB / TBIL / TC / TG / TP / gamma-GTP: tissue Plasma
[1] = 0 mg/kg, 3 h, dose level Control
[2] = 0 mg/kg, 6 h, dose level Control
[3] = 0 mg/kg, 9 h, dose level Control
[4] = 0 mg/kg, 24 h, dose level Control

## C[C@]12CCC(=O)C=C1CC[C@@H]1[C@@H]2CC[C@@]2(C)[C@H]1CC[C@]2(C)O [METHYLTESTOSTERONE]
[1]
  TERMINAL_BW: 202.4 g
  APTT: 15.7 s
  Bas: 0%
  Eos: 1%
  Fbg: 277 mg/dL
  Hb: 13.3 g/dL
  Ht: 39%
  Lym: 74.2%
  MCH: 21.5 pg
  MCHC: 34%
  MCV: 63.3 fL
  Mono: 3.6%
  Neu: 20.6%
  PT: 13.2 s
  Plat: 111.8 x10_4/uL
  RBC: 616.6 x10_4/ul
  Ret: 8.5%
  WBC: 71.2 x10_2/uL
  KIDNEY_L: 0.9 g
  KIDNEY_R: 0.9 g
  KIDNEY_TOTAL: 1.8 g
  LIVER: 8.7 g
  A/G: 0.9
  ALP: 1644.6 IU/L
  ALT: 45.4 IU/L
  AST: 80.2 IU/L
  BUN: 9.6 mg/dL
  CRE: 0.2 mg/dL
  Ca: 10.9 mg/dL
  Cl: 105.6 meq/L
  DBIL: 0.01 mg/dL
  GLC: 182.8 mg/dL
  IP: 9.8 mg/dL
  K: 4.4 meq/L
  LDH: 59.4 IU/L
  Na: 142 meq/L
  PL: 136.4 mg/dL
  RALB: 2.6 g/dL
  TBIL: 0.038 mg/dL
  TC: 86.2 mg/dL
  TG: 31.8 mg/dL
  TP: 5.5 g/dL
  gamma-GTP: 1.6 IU/L
[2]
  TERMINAL_BW: 202.9 g
  APTT: 17.1 s
  Bas: 0%
  Eos: 0.8%
  Fbg: 299 mg/dL
  Hb: 13.1 g/dL
  Ht: 38.7%
  Lym: 75.6%
  MCH: 21.5 pg
  MCHC: 34%
  MCV: 63.4 fL
  Mono: 3.6%
  Neu: 19.4%
  PT: 13.2 s
  Plat: 112.5 x10_4/uL
  RBC: 612 x10_4/ul
  Ret: 8.2%
  WBC: 68.1 x10_2/uL
  KIDNEY_L: 0.9 g
  KIDNEY_R: 0.9 g
  KIDNEY_TOTAL: 1.7 g
  LIVER: 8.5 g
  A/G: 0.9
  ALP: 1516.2 IU/L
  ALT: 41.8 IU/L
  AST: 72.4 IU/L
  BUN: 9 mg/dL
  CRE: 0.2 mg/dL
  Ca: 10.8 mg/dL
  Cl: 108 meq/L
  DBIL: 0.012 mg/dL
  GLC: 185.4 mg/dL
  IP: 10.1 mg/dL
  K: 4.1 meq/L
  LDH: 65.6 IU/L
  Na: 142.2 meq/L
  PL: 133.4 mg/dL
  RALB: 2.6 g/dL
  TBIL: 0.046 mg/dL
  TC: 79.8 mg/dL
  TG: 40.6 mg/dL
  TP: 5.5 g/dL
  gamma-GTP: 1.4 IU/L
[3]
  TERMINAL_BW: 203.4 g
  APTT: 16.8 s
  Bas: 0%
  Eos: 1%
  Fbg: 285.6 mg/dL
  Hb: 13.2 g/dL
  Ht: 38.5%
  Lym: 74.4%
  MCH: 21.3 pg
  MCHC: 34.2%
  MCV: 62.4 fL
  Mono: 3%
  Neu: 21.2%
  PT: 12.8 s
  Plat: 108.1 x10_4/uL
  RBC: 616.6 x10_4/ul
  Ret: 8.5%
  WBC: 59.4 x10_2/uL
  KIDNEY_L: 0.9 g
  KIDNEY_R: 0.9 g
  KIDNEY_TOTAL: 1.8 g
  LIVER: 7.9 g
  A/G: 0.9
  ALP: 1387.4 IU/L
  ALT: 42.2 IU/L
  AST: 76.2 IU/L
  BUN: 7.4 mg/dL
  CRE: 0.2 mg/dL
  Ca: 10.4 mg/dL
  Cl: 105.2 meq/L
  DBIL: 0.01 mg/dL
  GLC: 171.4 mg/dL
  IP: 10.6 mg/dL
  K: 4.1 meq/L
  LDH: 60.6 IU/L
  Na: 141 meq/L
  PL: 137.4 mg/dL
  RALB: 2.5 g/dL
  TBIL: 0.044 mg/dL
  TC: 90.2 mg/dL
  TG: 23 mg/dL
  TP: 5.4 g/dL
  gamma-GTP: 1.4 IU/L
[4]
  TERMINAL_BW: 210.8 g
  APTT: 17.4 s
  Bas: 0%
  Eos: 1%
  Fbg: 275 mg/dL
  Hb: 13.2 g/dL
  Ht: 38.6%
  Lym: 76%
  MCH: 21.7 pg
  MCHC: 34.2%
  MCV: 63.6 fL
  Mono: 2.8%
  Neu: 19.6%
  PT: 12.9 s
  Plat: 111.5 x10_4/uL
  RBC: 607.4 x10_4/ul
  Ret: 8.1%
  WBC: 74.8 x10_2/uL
  KIDNEY_L: 0.9 g
  KIDNEY_R: 0.9 g
  KIDNEY_TOTAL: 1.9 g
  LIVER: 9.8 g
  A/G: 0.9
  ALP: 1818.4 IU/L
  ALT: 48.4 IU/L
  AST: 74.2 IU/L
  BUN: 14.8 mg/dL
  CRE: 0.2 mg/dL
  Ca: 11.1 mg/dL
  Cl: 106.2 meq/L
  DBIL: 0.02 mg/dL
  GLC: 194.2 mg/dL
  IP: 8.1 mg/dL
  K: 4.3 meq/L
  LDH: 63.4 IU/L
  Na: 140.8 meq/L
  PL: 149.8 mg/dL
  RALB: 2.7 g/dL
  TBIL: 0.036 mg/dL
  TC: 80.8 mg/dL
  TG: 114.6 mg/dL
  TP: 5.7 g/dL
  gamma-GTP: 1.4 IU/L
30 mg/kg, 3 h, dose level Low
  TERMINAL_BW: 203.4 g
  APTT: 15.6 s
  Bas: 0%
  Eos: 1%
  Fbg: 292.4 mg/dL
  Hb: 12.7 g/dL
  Ht: 37.1%
  Lym: 77%
  MCH: 21.2 pg
  MCHC: 34.2%
  MCV: 61.9 fL
  Mono: 3.8%
  Neu: 17%
  PT: 13.1 s
  Plat: 105.6 x10_4/uL
  RBC: 599 x10_4/ul
  Ret: 8.5%
  WBC: 69.9 x10_2/uL
  KIDNEY_L: 0.9 g
  KIDNEY_R: 0.9 g
  KIDNEY_TOTAL: 1.8 g
  LIVER: 8.6 g
  A/G: 0.9
  ALP: 1715.8 IU/L
  ALT: 48.8 IU/L
  AST: 82.6 IU/L
  BUN: 9.8 mg/dL
  CRE: 0.2 mg/dL
  Ca: 11 mg/dL
  Cl: 106 meq/L
  DBIL: 0.012 mg/dL
  GLC: 181.8 mg/dL
  IP: 9.1 mg/dL
  K: 4.4 meq/L
  LDH: 76.6 IU/L
  Na: 141.4 meq/L
  PL: 131 mg/dL
  RALB: 2.5 g/dL
  TBIL: 0.048 mg/dL
  TC: 72.8 mg/dL
  TG: 41.8 mg/dL
  TP: 5.4 g/dL
  gamma-GTP: 1 IU/L
30 mg/kg, 6 h, dose level Low
  TERMINAL_BW: 202.1 g
  APTT: 17 s
  Bas: 0.2%
  Eos: 1%
  Fbg: 281 mg/dL
  Hb: 13.2 g/dL
  Ht: 38.6%
  Lym: 74.8%
  MCH: 21.4 pg
  MCHC: 34.1%
  MCV: 62.9 fL
  Mono: 3%
  Neu: 20.8%
  PT: 13.3 s
  Plat: 112.5 x10_4/uL
  RBC: 614.8 x10_4/ul
  Ret: 8.1%
  WBC: 69.8 x10_2/uL
  KIDNEY_L: 0.9 g
  KIDNEY_R: 0.9 g
  KIDNEY_TOTAL: 1.8 g
  LIVER: 8 g
  A/G: 0.9
  ALP: 1451.8 IU/L
  ALT: 44.8 IU/L
  AST: 77.4 IU/L
  BUN: 9.4 mg/dL
  CRE: 0.2 mg/dL
  Ca: 10.7 mg/dL
  Cl: 107.2 meq/L
  DBIL: 0.01 mg/dL
  GLC: 181 mg/dL
  IP: 10 mg/dL
  K: 4.2 meq/L
  LDH: 68.2 IU/L
  Na: 142.2 meq/L
  PL: 120.8 mg/dL
  RALB: 2.6 g/dL
  TBIL: 0.042 mg/dL
  TC: 70.6 mg/dL
  TG: 32.8 mg/dL
  TP: 5.4 g/dL
  gamma-GTP: 1.2 IU/L
30 mg/kg, 9 h, dose level Low
  TERMINAL_BW: 203.1 g
  APTT: 16.9 s
  Bas: 0%
  Eos: 1%
  Fbg: 287.4 mg/dL
  Hb: 13.2 g/dL
  Ht: 38.3%
  Lym: 77.2%
  MCH: 21.4 pg
  MCHC: 34.6%
  MCV: 61.7 fL
  Mono: 2.6%
  Neu: 18.4%
  PT: 13.3 s
  Plat: 113.2 x10_4/uL
  RBC: 620.8 x10_4/ul
  Ret: 8.2%
  WBC: 66.5 x10_2/uL
  KIDNEY_L: 0.9 g
  KIDNEY_R: 0.9 g
  KIDNEY_TOTAL: 1.7 g
  LIVER: 7.8 g
  A/G: 0.9
  ALP: 1527.6 IU/L
  ALT: 39.2 IU/L
  AST: 74.6 IU/L
  BUN: 8.8 mg/dL
  CRE: 0.2 mg/dL
  Ca: 10.6 mg/dL
  Cl: 107.6 meq/L
  DBIL: 0.01 mg/dL
  GLC: 185.2 mg/dL
  IP: 10.9 mg/dL
  K: 3.9 meq/L
  LDH: 65.6 IU/L
  Na: 142.8 meq/L
  PL: 120 mg/dL
  RALB: 2.6 g/dL
  TBIL: 0.054 mg/dL
  TC: 68.4 mg/dL
  TG: 26 mg/dL
  TP: 5.4 g/dL
  gamma-GTP: 1.6 IU/L
30 mg/kg, 24 h, dose level Low
  TERMINAL_BW: 208 g
  APTT: 19.7 s
  Bas: 0%
  Eos: 0.8%
  Fbg: 277 mg/dL
  Hb: 13 g/dL
  Ht: 37.9%
  Lym: 77%
  MCH: 21 pg
  MCHC: 34.2%
  MCV: 61.3 fL
  Mono: 2.8%
  Neu: 19%
  PT: 13.1 s
  Plat: 120.3 x10_4/uL
  RBC: 619.4 x10_4/ul
  Ret: 7.5%
  WBC: 80.6 x10_2/uL
  KIDNEY_L: 0.9 g
  KIDNEY_R: 0.9 g
  KIDNEY_TOTAL: 1.8 g
  LIVER: 9.4 g
  A/G: 0.9
  ALP: 1796.2 IU/L
  ALT: 55.8 IU/L
  AST: 81.2 IU/L
  BUN: 13.8 mg/dL
  CRE: 0.2 mg/dL
  Ca: 11.1 mg/dL
  Cl: 106.8 meq/L
  DBIL: 0.016 mg/dL
  GLC: 184.6 mg/dL
  IP: 8.3 mg/dL
  K: 4.1 meq/L
  LDH: 82 IU/L
  Na: 141.4 meq/L
  PL: 134.2 mg/dL
  RALB: 2.7 g/dL
  TBIL: 0.028 mg/dL
  TC: 68.2 mg/dL
  TG: 84.2 mg/dL
  TP: 5.7 g/dL
  gamma-GTP: 1 IU/L
